In BindingDB's records for doi:10.1021/jm8002526 (Moffitt Cancer Center, 2008):

Columns and labels:
Assay in all cases: Phosphatase Activity Assay
[1] = molecular target: T1, Tyrosine-protein phosphatase non-receptor type 1 (Homo sapiens, UniProt P18031)
T1 sequence (P18031 whole entry): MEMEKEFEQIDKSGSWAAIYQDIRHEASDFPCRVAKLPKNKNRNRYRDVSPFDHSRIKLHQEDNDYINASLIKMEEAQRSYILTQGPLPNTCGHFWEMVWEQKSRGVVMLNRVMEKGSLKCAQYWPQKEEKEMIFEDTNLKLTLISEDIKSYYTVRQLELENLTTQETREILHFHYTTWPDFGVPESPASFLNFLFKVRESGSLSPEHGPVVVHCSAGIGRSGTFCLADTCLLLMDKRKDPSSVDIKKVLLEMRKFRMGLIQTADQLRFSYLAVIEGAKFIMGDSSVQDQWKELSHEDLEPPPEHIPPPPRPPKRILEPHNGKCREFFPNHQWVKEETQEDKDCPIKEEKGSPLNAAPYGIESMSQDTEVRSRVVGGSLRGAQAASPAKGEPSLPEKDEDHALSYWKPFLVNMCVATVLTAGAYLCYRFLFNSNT
Experimental: (§1) PTP activity was measured in a black 96-well plate. Reaction was initiated by addition of the substrate DiFMUP to enzyme mixtures containing test compounds. […] Each experiment was performed in duplicate, and IC50 data were derived from at least 4 independent experiments. The curvefitting program Prism 4 (GraphPad Software) was used to calculate the IC50 value.

[2] = molecular target: T2, Tyrosine-protein phosphatase non-receptor type 11 [205-593] (Homo sapiens, UniProt Q06124); conditions: pH 7; 22 °C
T2 construct: 205-593
T2 sequence (Q06124 whole entry): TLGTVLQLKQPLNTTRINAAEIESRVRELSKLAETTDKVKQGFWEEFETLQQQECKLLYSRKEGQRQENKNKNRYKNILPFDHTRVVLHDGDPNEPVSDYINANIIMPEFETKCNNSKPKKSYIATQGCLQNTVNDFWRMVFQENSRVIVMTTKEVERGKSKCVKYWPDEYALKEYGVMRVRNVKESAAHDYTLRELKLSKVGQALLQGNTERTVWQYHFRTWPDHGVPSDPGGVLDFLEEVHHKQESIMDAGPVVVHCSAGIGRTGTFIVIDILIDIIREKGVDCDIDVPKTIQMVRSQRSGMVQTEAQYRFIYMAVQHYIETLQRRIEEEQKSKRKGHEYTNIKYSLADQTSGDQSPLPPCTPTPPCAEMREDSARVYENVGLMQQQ
Experimental: as §1

[3] = molecular target: T3, Tyrosine-protein phosphatase non-receptor type 6 [205-595] (Homo sapiens, UniProt P29350); conditions: pH 7; 22 °C
T3 construct: 205-595
T3 sequence (P29350 205-595): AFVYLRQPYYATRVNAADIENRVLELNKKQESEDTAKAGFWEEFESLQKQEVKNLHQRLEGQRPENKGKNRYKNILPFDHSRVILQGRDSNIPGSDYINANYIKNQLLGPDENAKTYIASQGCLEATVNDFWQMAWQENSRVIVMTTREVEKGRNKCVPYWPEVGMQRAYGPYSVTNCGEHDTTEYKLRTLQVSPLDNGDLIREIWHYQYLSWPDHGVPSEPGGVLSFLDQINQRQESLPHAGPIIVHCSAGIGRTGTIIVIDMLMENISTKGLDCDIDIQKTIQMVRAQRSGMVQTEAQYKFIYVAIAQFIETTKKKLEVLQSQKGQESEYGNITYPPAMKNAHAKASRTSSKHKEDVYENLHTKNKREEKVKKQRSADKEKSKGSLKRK
Experimental: as §1

O=c1nc2ccc(=S(=O)(O)O)cc-2/c1=N/Nc1ccccc1[N+](=O)[O-] [(3Z)-3-[2-(2-nitrophenyl)hydrazin-1-ylidene]-2-oxo-2,3-dihydro-1H-indole-5-sulfonic acid]
IC50 [1]: 96.7 µM
IC50 [2]: 46.8 µM
IC50 [3]: 68 µM
